# According to US11566049B2, “Cyclic peptides and uses thereof” (LATERAL IP PTY LTD, priority 2018, dated 2023):
# Where “and” joins values, the source holds several entries; their conditions need not be identical. Identical values can stand only once. Entries after “also recorded” stand apart in the source; their conditions may differ. Positions of bridges follow the written chain, without caps; N, C: chain ends. No end group written: not given here.
# Tests used:
# dorsal horn neurons [1] = experiment: whole-cell recording of dorsal horn neurons in spinal cord slices from Chung models (Example 3); type: cell-based, rat; settings: 5 μM; for Input Resistance, mean in presence of peptide / Membrane Potential, mean in presence of peptide: all cells; for Normalised Input Resistance / Normalised Input Resistance ΔIR: control = 100; for effect on membrane potential and activity of dorsal horn neurons: ipsilateral to injury; for Normalised Membrane Potential / Normalised Membrane Potential ΔVm: rest = 100; for ΔIR, change in neuronal input resistance: vs control, positive in table = reduction; for ΔVm, change in membrane potential: vs rest, positive in table = hyperpolarisation
# Experimental: Spinal nerve ligation (Chung model; as described in Examples 1 and 2, above) was performed by a single tight ligation on the L5 spinal nerve. […] This animal model is often used as the “gold standard” for neuropathic pain.
# (§1) Adult male Sprague-Dawley rats, weighing 220-250 g (aged 7 weeks and older) at the time of surgery, were used in this study. They were housed in groups of 4, in an air-conditioned room, on a 12-hour light/dark cycle with food and water available ad libitum. All experiments were performed in accordance with the U. K. Animals (Scientific Procedures) Act (1986).
# (§2) The animals were housed in groups of 4 in an air-conditioned room on a 12-hour light/dark cycle. Food and water were available ad libitum. Animals were allowed to acclimatise to the environment for experiments for three days by leaving them on a raised metal mesh for at least 40 min. The baseline paw withdrawal threshold (PWT) was examined using a series of graduated von Frey hairs (see below) for 3 consecutive days before surgery and re-assessed on the 6th to 8th day after surgery and on the 12th to 14th day-after surgery before drag dosing.
# (§3) Each rat was anaesthetized with 5% isoflurane mixed with oxygen (2 L per min) followed by an intramuscular (i.m.) injection of ketamine 90 mg/kg plus xylazine 10 mg/kg. The back was shaved and sterilized with povidone-iodine. The animal was placed in a prone position and a para-medial incision was made on the skin covering the L4-6 level. The L5 spinal nerve was carefully isolated and tightly ligated with 6/0 silk suture. The wound was then closed in layers after a complete haemostasis. A single dose of antibiotics (Amoxipen, 15 mg/rat, i.p.) was routinely given for prevention of infection after surgery. The animals were placed in a temperature-controlled recovery chamber until fully awake before being returned to their home cages.
# The peptides of SEQ ID NO:27 (also referred to herein as LAT9993 Loop) and SEQ ID NO:28 (also referred to herein as LAT9993S or LAT9993 LoopS), were solubilised in distilled water and made up as concentrated stocks and stored frozen until the day of experiment when they were diluted to the required test concentrations in artificial cerebrospinal fluid (aCSF). The aCSF comprised (mM): NaCl, 127; KCl, 1.9; KH2PO4, 1.2; CaCl2, 2.4; MgCl2, 1.3; NaHCO3, 26; D-glucose, 10; equilibrated with 95% O2-5% CO2.
# (§4) Ten to fourteen days after surgery, animals were placed in individual Perspex boxes on a raised metal mesh for at least 40 minutes prior to PWT testing. Starting with the filament of lowest force (1 g), each filament was applied perpendicularly to the centre of the ventral surface of the paw until slightly bent for 6 seconds. If the animal withdrew or lifted its paw upon stimulation, a von Frey hair with force immediately lower than that tested was subsequently used. If no response was observed, then a hair with force immediately higher was tested. The lowest amount of force required to induce reliable responses (positive in 2 out of 3 trials) was recorded as the value of PWT. Only animals showing significant mechanical allodynia (PWT≤3.5 g) were selected for subsequent electrophysiological experiments (see FIG. 5).
# (§5) Once validation of a neuropathic state had been confirmed, animals were terminally anesthetized using isoflurane (Norvartis Animal Health UK Ltd.), cervically dislocated and decapitated. A laminectomy was performed and the spinal cord, with spinal roots and DRG attached, removed and cut into 250-450 μm thick slices using a Leica VT1000S vibrating microtome (Leica Microsystems UK, Milton Keynes, United Kingdom). Slices were maintained in artificial cerebrospinal fluid (aCSF) at room temperature for 1 hr after slicing before recording. For recording, individual slices were held between two grids in a custom-built chamber continuously perfused with aCSF at a rate of 4-10 ml.min^−1, illuminated from below, and viewed under a dissection microscope. […]
# dorsal horn neurons [2] = experiment: whole-cell recording of dorsal horn neurons in spinal cord slices from Chung models (Example 4); type: cell-based, rat; settings: 1 μM
# Experimental: as §1, with “(aged/weeks” for “(aged 7 weeks”, “U.K.” for “U. K.”
# as §2, with “They” for “Animals”, “day after” for “day-after”, “drug” for “drag”
# as §3
# LAT9993 LoopS (SEQ ID NO:28), SEQ11+LAT9993 Loop (SEQ ID NO:32; […]), SEQ25+LAT9993 Loop (SEQ ID NO:33; […]), LAT9993 SLoop A4 (SEQ ID NO:30), LAT9993 SLoop A7 (SEQ ID NO:31), LAT9993 SLoop A9 (SEQ ID NO:34; SCRSRPVEASC) and LAT9993 SLoop A10 (SEQ ID NO:35; SCRSRPVESAC), were solubilised in distilled water and made up as concentrated stocks and stored frozen until the day of experiment when they were diluted to the required test concentrations in artificial cerebrospinal fluid (aCSF), as described in Example 3, above.
# as §4
# as §5, with “microscope. The aCSF was of the following composition (mM): NaCl, 127; KCl, 1.9; KH2PO4, 1.2; CaCl2, 2.4; MgCl2, 1.3; NaHCO3, 26; D-glucose, 10; equilibrated with 95% O2-5% CO2.” for “microscope.”
sequence,measurement,setting,value
"CRSRPVESSC (disulfide 1-10 (inferred); listed as Homo sapiens) [LAT9993 Loop, cyclic peptide of formula (I), disulphide bond between the two cysteine residues]",dorsal root afferent-mediated EPSPs,dorsal horn neurons [1],suppression; also recorded: suppressed dorsal root afferent mediated excitatory synaptic transmission
same,evoked inhibitory post-synaptic potentials,dorsal horn neurons [1],little effect
same,"Input Resistance, mean in presence of peptide",dorsal horn neurons [1],566.3±82.0 MΩ and 566.3 MΩ
same,"Membrane Potential, mean in presence of peptide",dorsal horn neurons [1],−51.9±3.9 mV and −51.9 mV
same,Normalised Input Resistance,dorsal horn neurons [1],92.4
same,Normalised Input Resistance ΔIR,dorsal horn neurons [1],7.6
same,effect on membrane potential and activity of dorsal horn neurons,dorsal horn neurons [1],marked membrane hyperpolarisation and inhibition of activity in 4 neurons; also recorded: little effect on a further 2 dorsal horn neurons
same,Normalised Membrane Potential,dorsal horn neurons [1],107.2
same,Normalised Membrane Potential ΔVm,dorsal horn neurons [1],−7.2
same,"ΔIR, change in neuronal input resistance",dorsal horn neurons [1],51.6±75.3 MΩ and 51.6 MΩ
same,"ΔVm, change in membrane potential",dorsal horn neurons [1],3.5±1.1 mV and 3.5 mV
"CRSRPVESSCS (disulfide 1-10 (inferred); listed as Homo sapiens) [LAT9993 LoopS, cyclic peptide of formula (I), disulphide bond between the two cysteine residues]",dorsal root afferent-mediated EPSPs,dorsal horn neurons [1],"suppression of dorsal root afferent-mediated EPSPs, in one neurone selectively"
same,"Input Resistance, mean in presence of peptide",dorsal horn neurons [1],788±191.9 MΩ and 788.0 MΩ
same,"Membrane Potential, mean in presence of peptide",dorsal horn neurons [1],−50.6±1.8 mV and −50.6 mV
same,Normalised Input Resistance,dorsal horn neurons [1],95.6
same,Normalised Input Resistance ΔIR,dorsal horn neurons [1],4.4
same,effect on membrane potential and activity of dorsal horn neurons,dorsal horn neurons [1],membrane hyperpolarisation and inhibition of activity in 3 neurons; also recorded: little effect on a further 2 dorsal horn neurons; also recorded: principally induced inhibition of dorsal horn neurons or was without significant effect
same,dorsal root afferent-mediated EPSPs,dorsal horn neurons [1]; listed as LAT999 LoopS,suppressed dorsal root-evoked excitatory posts-synaptic potentials (EPSPs) in two neurons
same,dorsal root afferent-mediated EPSPs,dorsal horn neurons [1]; listed as LAT9993S,suppression of EPSPs; also recorded: selectively suppressed
same,Normalised Membrane Potential,dorsal horn neurons [1],109.2
same,Normalised Membrane Potential ΔVm,dorsal horn neurons [1],−9.2
same,reversal potential of induced response (VI plots intersect),dorsal horn neurons [1]; single cells,around −55 mV
same,"ΔIR, change in neuronal input resistance",dorsal horn neurons [1],22.1±24.2 MΩ and 22.1 MΩ
same,"ΔVm, change in membrane potential",dorsal horn neurons [1],3.8±2 mV and 3.8 mV
same,dorsal root afferent-mediated EPSPs / synaptic inputs (words),dorsal horn neurons [2],either slightly suppressed dorsal root-evoked excitatory post-synaptic potentials (EPSPs) or had little effect; also recorded: little effect
same,"Input Resistance, mean in presence of peptide",dorsal horn neurons [2]; all cells,502.6±104.1 MΩ and 502.6 MΩ
same,"Membrane Potential, mean in presence of peptide",dorsal horn neurons [2]; all cells,−44.7±4.3 mV and −44.7 mV
same,Normalised Input Resistance,dorsal horn neurons [2]; control = 100,92.8
same,Normalised Input Resistance ΔIR,dorsal horn neurons [2]; control = 100,7.2
same,effect on membrane potential and activity of dorsal horn neurons,dorsal horn neurons [2]; ipsilateral to injury,membrane hyperpolarisation and inhibition of activity in 1 neurone; also recorded: membrane depolarisation in the other two neurons; also recorded: small excitation of dorsal horn
same,dorsal root afferent-mediated EPSPs / synaptic inputs (words),dorsal horn neurons [2]; listed as LAT9993 Loop S,little effect
same,Normalised Membrane Potential,dorsal horn neurons [2]; rest = 100,91.5
same,Normalised Membrane Potential ΔVm,dorsal horn neurons [2]; rest = 100,8.5
same,reversal potential of induced response (VI plots intersect),dorsal horn neurons [2]; single cells,around −85 mV
same,"ΔIR, change in neuronal input resistance","dorsal horn neurons [2]; vs control, in table positive = reduction, negative = increase",28.7±34.9 MΩ and 28.7 MΩ
